Data published in patent publication US20240228475A1, “PROCESSES FOR THE PREPARATION OF (S)-2-(2,6-DIOXOPIPERIDIN-3-YL)-4-((2-FLUORO-4-((3-MORPHOLINOAZETIDIN-1-YL)METHYL)BENZYL)AMINO)ISOINDOLINE-1,3-DIONE” (Celgene Corporation, priority 2021, published 2024).
Values after ≈ are worked out from the molar mass of the structure shown.

Assays:
[1] = Chiral stability (racemization) of Compound 1 free base in aqueous at various pH; assay type: physicochemical; settings: for Chiral Purity: aqueous
From the text: (§1) The rate is time and temperature sensitive (Table 1). The isolation of the crystalline bis-besylate salt of Compound 1 avoids the need for a pH swing. Also, the crystalline freebase has poor morphology which makes filtration slow, increasing the risk for racemization.

[2] = Solubility of Compound 1 free base in aqueous at various pH; assay type: physicochemical; settings: aqueous solution, aqueous buffer
From the text: as §1

| Chiral stability towards aqueous base ([1]; aqueous base, rate is time and temperature sensitive) | Chiral Purity ([1]; pH 5.3, time 3 h) | Chiral Purity ([1]; pH 6.7, time 4 h) | Chiral Purity ([1]; pH 7.6, time 4 h) | solubility at 3 h ([2]; pH 5.3, time 3 h) | solubility at 4 h ([2]; pH 6.7, time 4 h) | solubility at 4 h ([2]; pH 7.6, time 4 h) | Chiral stability compared to the crystalline freebase ([1]; isolated solid, compared to crystalline freebase) | SMILES |
| --- | --- | --- | --- | --- | --- | --- | --- | --- |
| racemization was observed | 94.1% | 89.1% | 83.2% | 4500 µg/mL (≈ 8.4 mM) | 2400 µg/mL (≈ 4.48 mM) | 400 µg/mL (≈ 0.747 mM) | – | O=C1CC[C@H](N2C(=O)c3cccc(NCc4ccc(CN5CC(N6CCOCC6)C5)cc4F)c3C2=O)C(=O)N1 [Compound 1 Free Base, (S)-2-(2,6-dioxopiperidin-3-yl)-4-((2-fluoro-4-((3-morpholinoazetidin-1-yl)methyl)benzyl)amino)isoindoline-1,3-dione] |
| – | – | – | – | – | – | – | more stable | O=C1CC[C@H](N2C(=O)c3cccc(NCc4ccc(CN5CC(N6CCOCC6)C5)cc4F)c3C2=O)C(=O)N1.O=S(=O)(O)c1ccccc1.O=S(=O)(O)c1ccccc1 [Compound 1 bis-besylate salt, (S)-2-(2,6-dioxopiperidin-3-yl)-4-((2-fluoro-4-((3-morpholinoazetidin-1-yl)methyl)benzyl)amino)isoindoline-1,3-dione bis-besylate salt] |
